“Also recorded” adds a separate entry of the source.
Tests used:
[1] = test system: tissue norepinephrine and dopamine levels; assay: Tissue catecholamines in beagle dogs, 10, 30, 60 mg/kg/day for 4.5 days; type: in vivo
Procedure: This study was performed to determine the dopamine and norepinephrine concentrations in kidney medulla and kidney cortex from dogs dosed with nepicastat. Adult male beagle dogs were randomly assigned to four groups of 8 dogs per group and dosed by oral administration with nepicastat. Nepicastat was delivered in doses of 5, 15 and 30 mg/kg placed in single capsules. Vehicle was an empty capsule. Each dog received 2 doses daily, morning and afternoon (8-10 hours apart) for four days. On the fifth day, each dog received a single dose in the morning and the dogs were euthanized six hours after the last dose. Samples of kidney medulla and kidney cortex were rapidly harvested, weighed, placed in cold 0.4 M perchloric acid, frozen in liquid nitrogen and stored at −70° C.
To quantitate concentrations of norepinephrine (NE) and dopamine (D), each tissue was homogenized by brief sonication in 0.4 M perchloric acid. After sonication, the homogenates were centrifuged at 13,000 rpm in a microfuge for 30 minutes at 4° C. An aliquot of each supernatant was removed and spiked with 3,4-dihydroxybenzylamine (DHBA) as internal standard. The extract from each sample was subjected to HPLC separation using electrochemical detection. The method has a quantitation limit of 2.0 ng/mL and a linear range of 2.0 ng/mL to 400 ng/mL for each analyte.
Thirty-two male beagle dogs, weighing 10-12 kg, were randomly assigned to one of the following 4 treatment groups (n=8 per group): nepicastat at 0 mg/kg/day (placebo), 10 mg/kg/day (5 mg/kg b.i.d.), 30 mg/kg (15 mg/kg b.i.d.), or 60 mg/kg/day (30 mg/kg b.i.d.). Dog numbers 1-16 were assigned as dose group A and dog numbers 17-32 as dose group B. The terminal surgery for tissue harvest was performed over 2 days with 16 animals studied per day. Two or 3 days before the first compound administration each dog was weighed and skin regions overlying both cephalic, saphenous and jugular veins were shaved. Dosing consisted of oral administration of one capsule with the second given 8-10 hr later. Dogs were dosed as scheduled on days 1-3. On day 4, prior to the AM dose, 3 ml of blood were obtained from a jugular vein for determination of baseline plasma compound levels. The dog was then administered the AM dose, and at 1, 2, 4 and 8 hr following the dose additional 3 ml blood samples were collected for determination of plasma compound levels. Blood samples were put into tubes containing heparin, centrifuged at 4° C. and stored at −20° C. until analysis. The PM dose was then administered as scheduled. The AM dose was administered as scheduled on the days of surgery. Approximately 6 hr after the AM dose, a final 3 ml blood sample was taken from the jugular vein for determination of plasma compound levels. The dog was then anesthetized with pentobarbital Na (˜40 mg/kg), given i.v. in a cephalic or saphenous vein, and delivered to the necropsy room where an additional dose of pentobarbital Na was given (˜80 mg/kg, iv). The left ventricle, renal artery, kidney, renal medulla, renal cortex and cerebral cortex were then rapidly harvested, weighed, put into 2 ml iced 0.4M perchloric acid, frozen in liquid nitrogen and stored at −70° C. until analysis for catecholamines by HPLC using electrochemical detection. All tissue samples were divided into 2 portions, the second of which were immediately frozen in liquid nitrogen and stored at −70° C. for determination of tissue compound levels. A third transmural sample taken from the left ventricle was immediately frozen in liquid nitrogen and stored at −70° C. for use in receptor binding studies.
Ventricles were homogenized in 50 mM Tris-HCl, 5 mM Na2EDTA buffer (pH 7.4 at 4° C.) using a Polytron P-10 tissue disrupter (setting 10, 2×15 second bursts). Homogenates were centrifuged at 500×g for 10 minutes and the supernatants stored on ice. The pellets were washed by resuspension and centrifugation at 500×g and the supernatants combined. […]

[2] = test system: conscious, restrained SHRs; assay: Hemodynamic study in conscious, restrained SHRs; type: in vivo, spontaneously hypertensive rats
Procedure: The in vivo hemodynamic activity of nepicastat was further assessed in conscious, restrained SHRs, a model having high sympathetic drive to cardiovascular tissues. Hemodynamic study in SHRs. Male SHRs (15-16 week old) were used in the study. The animals were lightly anesthetized with ether and the left femoral artery and vein were catheterized for measurement of blood pressure and drug administration, respectively. The animals were placed in restrainers and allowed to recover for 30-40 min. After obtaining baseline measurements, the animals were treated, orally, with either vehicle or the appropriate dose of nepicastat and hemodynamic parameters were continuously recorded for 4 h. The animals were then anesthetized with pentobarbital, placed on a heating pad (37° C.) and ventilated with a Harvard rodent ventilator. After administration of atropine (1 mg/kg, iv) and tubocurarine (1 mg/kg, iv), the animals were pithed through the orbit of the eye with a stainless steel rod. The […] rod was stimulated electrically with 1 ms pulses of 80V at different frequencies (0.15, 0.45, 1.5, 5, 15 Hz) to obtain frequency-pressor response curves. […] The animals were placed in restrainers and allowed to recover for 30-40 minutes. After obtaining baseline measurements, the animals were treated, orally, with either vehicle or the appropriate dose of nepicastat and hemodynamic parameters were continuously recorded for 4 h.

anesthetized beagle dogs = assay: Sympathetically-evoked responses in dogs after 4.5 days dosing; type: in vivo; conditions: 10 mg/kg/d for 4.5 days
[3] = renal medulla, 60 mg/kg/day, marginal (0.05<p<0.10)

## Cl.NCc1c[nH]c(=S)n1[C@H]1CCc2c(F)cc(F)cc2C1 [nepicastat, (S)-5-Aminomethyl-1-(5,7-difluoro-1,2,3,4-tetrahydronaphth-2-yl)-2,3-dihydro-2-thioxo-1H-imidazole hydrochloride]
[1]; cerebral cortex, 10 mg/kg/day
  increase in dopamine: 632%
  increase in dopamine/norepinephrine ratio: 531%
[1]; cerebral cortex, 30 mg/kg/day
  decrease in norepinephrine: 63%
  increase in dopamine/norepinephrine ratio: 86%
[1]; cerebral cortex, 30 mg/kg/day, marginal (0.05<p<0.10)
  increase in dopamine: 174%
[1]; cerebral cortex, 60 mg/kg/day
  increase in dopamine: 411%
  increase in dopamine/norepinephrine ratio: 612%
[1]; cerebral cortex, 10 and 60 mg/kg/day
  norepinephrine levels vs placebo: not significantly (p>0.01) affected
[1]; heart, renal artery and kidney
  dose at which the plateau in DBH inhibition response begins: 10 mg/kg/day
[1]; left ventricle, 10 mg/kg/day
  decrease in norepinephrine: 85%
  increase in dopamine/norepinephrine ratio: 852%
[1]; left ventricle, 30 mg/kg/day
  decrease in norepinephrine: 58%
  increase in dopamine/norepinephrine ratio: 279%
[1]; left ventricle, 60 mg/kg/day
  decrease in norepinephrine: 79%
  increase in dopamine/norepinephrine ratio: 607%
[1]; left ventricle, 10, 30 and 60 mg/kg/day
  dopamine levels vs placebo: No significant changes
[1]; renal artery, 10 mg/kg/day
  decrease in norepinephrine: 86%
  increase in dopamine: 180%
  increase in dopamine/norepinephrine ratio: 1711%
[1]; renal artery, 30 mg/kg/day
  decrease in norepinephrine: 81%
  increase in dopamine: 273%
  increase in dopamine/norepinephrine ratio: 1767%
[1]; renal artery, 60 mg/kg/day
  decrease in norepinephrine: 85%
  increase in dopamine: 268%
  increase in dopamine/norepinephrine ratio: 1944%
[1]; renal cortex, 10 mg/kg/day
  decrease in norepinephrine: 86%
  increase in dopamine: 156%
  increase in dopamine/norepinephrine ratio: 1653%
[1]; renal cortex, 30 mg/kg/day
  decrease in norepinephrine: 66%
  increase in dopamine: 502%
  increase in dopamine/norepinephrine ratio: 1440%
[1]; renal cortex, 60 mg/kg/day
  decrease in norepinephrine: 85%
  increase in dopamine: 208%
  increase in dopamine/norepinephrine ratio: 1693%
[1]; renal medulla, 10 mg/kg/day
  decrease in norepinephrine: 72%
  increase in dopamine/norepinephrine ratio: 555%
[1]; renal medulla, 10 mg/kg/day, marginal (0.05<p<0.10)
  increase in dopamine: 150%
[1]; renal medulla, 30 mg/kg/day
  increase in dopamine: 522%
  increase in dopamine/norepinephrine ratio: 636%
[1]; renal medulla, 60 mg/kg/day
  increase in dopamine/norepinephrine ratio: 677%
[1]; [3]
  decrease in norepinephrine: 69%
  increase in dopamine: 156%
[2]; 10 mg/kg
  decrease in heart rate: 9.8%
[2]; 10 mg/kg po
  maximal decrease in mean blood pressure: 53±4 mmHg
  reduction in mean blood pressure relative to vehicle control: 33%
[2]; 10 mg/kg, SHRs
  decrease in blood pressure 4 hours after dosing: −46 mmHg
[2]; 30 mg/kg
  decrease in heart rate: 10.5%
[2]; 0.3-30 mg/kg po, up to 4 h, hydrochloride
  effect on mean arterial pressure: significant (p<0.05) lowering of mean arterial pressure; also recorded: significant antihypertensive effect
[2]; 10 and 30 mg/kg po
  effect on heart rate: significantly reduced heart rate
[2]; acute oral administration
  duration of antihypertensive effects: > 4 h
[2]; po
  time to plateau of the antihypertensive response: 3 to 4 h
Anesthetized beagle dogs
  blood pressure and heart rate increases in response to carotid artery occlusion: no statistically significant decrease
  blood pressure response to i.v. tyramine challenge: only slight and non-significant inhibition
  heart rate response to i.v. tyramine challenge: significantly reduced the increase in heart rate
